In brackets after ≈: the same amount, converted by molar mass. Activity calls are given as the source filed them. No cut-off for these calls is given here.
Experiments:
Campylobacter jejuni [1] = assay: Antibacterial activity against Campylobacter jejuni JB201 infected in chicken assessed as decrease in bacterial colonization at 50 mg/L; type: functional, organism-based
Campylobacter = assay: Antibacterial activity against Campylobacter by Etest; type: functional
Campylobacter jejuni [2] = assay: Antibacterial activity against Cj1211-positive Campylobacter jejuni harboring aphA3 and tet(O) genes; type: functional
Campylobacter jejuni [3] = assay: Antibacterial activity against Cj1211-negative Campylobacter jejuni harboring aphA3 and tet(O) genes; type: functional

**Q.** For `CCN1CCN(c2cc3c(cc2F)c(=O)c(C(=O)O)cn3C2CC2)CC1`, which Activity (Campylobacter jejuni [1]) is on record?
**A.** Active

**Q.** `O=C(O)c1cn(C2CC2)c2cc(N3CCNCC3)c(F)cc2c1=O` [CIPROFLOXACIN] was tested. Which MIC (Campylobacter) did it give?
**A.** > 32 µg/mL

**Q.** With `NC[C@H]1O[C@H](O[C@H]2[C@H](O)[C@@H](O[C@H]3O[C@H](CO)[C@@H](O)[C@H](N)[C@H]3O)[C@H](N)C[C@@H]2N)[C@H](O)[C@@H](O)[C@@H]1O` [KANAMYCIN] as the compound, how does the MIC (Campylobacter jejuni [2]) read?
**A.** > 256 µg/mL

**Q.** What about the MIC (Campylobacter jejuni [3]) of the same compound?
**A.** > 256 µg/mL

**Q.** Which MIC (Campylobacter jejuni [2]) does the source give for `CN(C)[C@@H]1C(O)=C(C(N)=O)C(=O)[C@@]2(O)C(O)=C3C(=O)c4c(O)cccc4[C@@](C)(O)[C@H]3C[C@@H]12` [TETRACYCLINE] here?
**A.** 16 µg/mL (≈ 36 µM)

**Q.** And the MIC (Campylobacter jejuni [3])?
**A.** 16 µg/mL (≈ 36 µM)
